According to patent US10781209B2, “1H-pyrrolo[2,3-c]pyridin-7(6H)-ones and pyrazolo[3,4-c]pyridin-7(6H)-ones as inhibitors of BET proteins” (Incyte Corporation, priority 2014, dated 2020):

Tested on: KMS.12.BM cells
Assay: KMS.12.BM cell viability assay (Cell Titer-GLO, ATP quantitation)
Format: cell-based
Settings: 72 h, human myeloma cell line, 3 days, concentration required for 50% cell death
Description: KMS.12.BM cell line (human myeloma) was purchased from JCRB (Osaka, Japan) and maintained in RPMI with 10% FBS culture medium. To measure the cytotoxic activity of the compounds through ATP quantitation, the KMS.12.BM cells are plated in the RPMI culture medium at 5000 cells/well/per 100 μL into a 96-well polystyrene clear black tissue culture plate (Greiner-bio-one through VWR, NJ), in the presence or absence of a concentration range of test compounds. After 3 days, […] Cell Titer-GLO Luminescent (Promega, Madison, Wis.) cell culture agent is added to each well for 10 minutes at room temperature to stabilize the luminescent signal. This determines the number of viable cells in culture based on quantitation of the ATP present, which signals the presence of metabolically active cells. Luminescence is measured with the Top Count 384 (Packard Bioscience through Perkin Elmer, Boston, Mass.). Compound inhibition is determined relative to cells cultured with no drug and the IC50 is reported as the compound concentration required for 50% cell death.

Molecule Cn1cc(-c2cccc3c2OC(c2ccccn2)C(=O)N3)c2cc[nH]c2c1=O (stereo not shown) [Example 5, 8-(6-methyl-7-oxo-6,7-dihydro-1H-pyrrolo[2,3-c]pyridin-4-yl)-2-pyridin-2-yl-2H-1,4-benzoxazin-3(4H)-one 2,2,2-trifluoroacetate] has an IC50 of no more than 1000 nM.
